# Test results from article PMC11200626, “In Vitro Biological Activities of Hesperidin-Related Compounds with Different Solubility” (Antioxidants, 2024).
# Like-named read-outs stand apart in the source and are kept apart here.
# How the values were obtained:
# [1] = DPPH radical scavenging assay; conditions: for IC50: 0.2 mM DPPH in ethanol, 37 °C, 30 min, read-out: IC50 representing 50% of DPPH radical scavenging
# Protocol: Measurements of DPPH radical scavenging activity were performed based on the method described by Ratha et al. and Blois, with slight modifications. Briefly, DPPH was dissolved in absolute ethanol to 0.2 mM, and 20 μL of the diluted sample was added to 180 μL of the DPPH solution. The reaction was performed at 37 °C for 30 min to stabilize the color, and the absorbance of the reaction solution was measured at 520 nm using a microplate reader (Epoch2, Bio Tek, Winooski, VT, USA). The DPPH radical scavenging activity was calculated using the following formula. Ascorbic acid was used as a positive control. DPPH radical scavenging activity%=A−B/A×100 where A is the absorbance of the reaction solution without a sample, and B is the absorbance of the reaction solution with a sample.
# [2] = β-carotene bleaching assay; conditions: for IC50: β-carotene/linoleic acid emulsion, 50 °C, 2 h
# Protocol: Measurements of the inhibition activity of β-carotene oxidation were performed using the method described by Wanasundara et al. and Hidalgo et al. with slight modifications. Briefly, a mixture of β-carotene and linoleic acid was prepared by dissolving 0.2 mg of β-carotene in 1 mL of chloroform and mixing this solution with 200 mg of Tween 20 containing 20 mg of linoleic acid. After removing the chloroform from the mixture in a rotary evaporator at 50 °C, 100 mL of deionized water was added to prepare an emulsion. The diluted sample (100 μL) was mixed with 900 μL of the prepared emulsion and the absorbance was measured immediately at 470 nm. Then, after a reaction at 50 °C for 2 h, the absorbance was measured again at 470 nm. Antioxidant activity was evaluated as a percent of oxidation inhibition compared to the untreated group sample. As a positive control, BHT (butylated hydroxytoluene) was used in the experiment. β−Carotene bleaching inhibition activity%=A0−At−(B0−Bt)/A0−At×100 where A0 is the initial absorbance without a sample, At is the final absorbance without a sample, B0 is the initial absorbance with a sample, and Bt is the final absorbance with a sample.
# [3] = n-octanol–water partition coefficient; assay type: physicochemical; conditions: 500 μM sample, 20 h at 20 °C, HPLC, mean ± SD (n = 3); for logP at 20 h: n-octanol/water, read-out: Log Po/w (n-octanol–water partition coefficient) (converted)
# Protocol: The hydrophobic/hydrophilic properties were investigated by measuring octanol–water partition coefficients. Octanol–water partition coefficients of the four hesperidin-related compounds were determined by the method described in the previous study. Briefly, samples (500 μM) were mixed in deionized water with an equal volume of n-octanol, and then the mixture was kept for 20 h at 20 °C in the dark to reach partition equilibrium. The concentration of each sample was determined by HPLC, and the partition coefficient (log P) was calculated as the ratio of the concentration in the n-octanol phase to the concentration in the water phase. Partition coefficient LogP=LogCoctanol/[C]water where [C]n-octanol is the concentration of a compound in the n-octanol phase, and [C]water is the concentration of a compound in the water phase.
# HaCaT cells = assay: MTT cell viability / cytotoxicity assay; conditions: 24 h, tested 12.5–200 μM
# Protocol: The keratinocyte HaCaT cell line was obtained from AddexBio (SanDiego, CA, USA). The cells were maintained in DMEM supplemented with 10% FBS and 1% of penicillin/streptomycin under a humidified atmosphere condition of 5% CO2 at 37 °C. The cytotoxicity of HD and the related compounds was assessed by MTT assay. Cells were seeded in 96-well plates at a density of 2 × 10^4 cells/well and incubated for 24 h at 37 °C. Each sample of HTL, HT, HD, and HDG was dissolved in DMSO as a stock solution (0.1 M). […] After incubation for 24 h, the culture medium was removed and MTT solution (100 μL) was added to the well. The mixture was kept at 37 °C for 2 h, then DMSO was added to the reaction mixture and the absorbance at 540 nm was measured in a microplate reader (Epoch2, Bio Tek, Winooski, VT, USA). Cell viability was calculated as a percentage of difference in absorbance between control and test samples.
# [4] = test system: nitric oxide (NO) in HaCaT cells; assay: Cellular NO levels after UV irradiation; assay type: cell-based; conditions: UV 10 mJ/cm^2, 24 h; for NO levels (in words): tested up to 50 μM; for NO production (in words): at 25 μM
# Protocol: Cellular NO levels were determined as an inflammatory intermediate in HaCaT cells. […] Then, cells with or without samples were irradiate with 10 mJ/cm^2 of UV rays at 302 nm using a UV irradiator (UV Crosslinker CL-1000M, UVP, Upland, CA, USA). […] After 24 h incubation, the NO content in the media was measured using an NO assay kit according to the manufacturer’s experimental protocol. The absorbance was measured at 540 nm in the same microplate reader as above.
# TNF-α in HaCaT cells = assay: Cellular TNF-α levels after UV irradiation (ELISA); assay type: cell-based, Human; conditions: UV 10 mJ/cm^2, 24 h, tested concentrations up to 25 μM
# Protocol: (§1) Cellular levels of TNF-α and IL-6 were measured in HaCaT cells after the addition of various concentrations of HTL, HT, HD, and HDG under UV irradiation. The cell culture and sample treatment conditions for the TNF-α and IL-6 assay were the same as those used in the NO assay. The TNF-α and IL-6 contents in the media were measured, respectively, using commercial detection kits according to the manufacturer’s protocols. The absorbance was measured at 450 nm in the same microplate reader as above.
# IL-6 in HaCaT cells = assay: Cellular IL-6 levels after UV irradiation (ELISA); assay type: cell-based, Human; conditions: UV 10 mJ/cm^2, 24 h, tested concentrations up to 25 μM
# Protocol: as §1
# Candida albicans = assay: MIC, broth micro-dilution with resazurin; assay type: cell-based, Candida albicans (KCCM 50235); conditions: read-out: MIC Value
# Protocol: (§2) Antimicrobial capacity was evaluated against some bacteria and yeast known to be major skin resident microorganisms. Staphylococcus aureus (KCCM 11335) was cultivated on TS agar, and Cutibacterium acnes (KCTC 25526) was cultivated on RCM agar in an anaerobic jar (Rec. Jar, Mitsubishi Gas Chemical Co., Tokyo, Japan) with anaerobic gas packs. Candida albicans (KCCM 50235) was cultivated on YM agar, and Malassezia furfur (KCTC 7545) was cultivated on MLN agar. All the microbes were cultivated at 35 °C.
# (§3) For the determination of MIC, S. aureus was cultivated in TS broth, and C. acnes was cultivated in RCM medium in an anaerobic jar with gentle shaking. C. albicans was cultivated in an RPMI-1640 medium supplemented with L-glutamine, and M. furfur was cultivated in an RPMI medium supplemented with 2% oleic acid, 0.5% glycerol, 0.5% Tween 60, and 0.2% sodium bicarbonate. All the microbes were cultivated at 35 °C, and the inoculum size for MICs was 5 × 10^5 cells/mL for S. aureus, and 1.5 × 10^5 cells/mL for C. acnes, C. albicans, and M. furfur, respectively.
# MIC values were determined by the broth micro-dilution method with some modifications. Briefly, the culture broth of each microorganism was diluted with the same medium. Two-fold serial dilutions of HTL, HT, HD, and HDG ranging from 4000 to 62.5 μg/mL (depending on the microorganism tested) were performed in 96 well plates. After incubation for sufficient growth, the resazurin solution (1 mg/mL, 10 µL) was added to each well and the plate was incubated for 2 h. The MIC value for a microorganism was determined as the lowest concentration of the tested compound that prevented the color change of resazurin (blue to pink).
# [5] = Water solubility (in words); assay type: physicochemical
# Staphylococcus aureus = assay: MIC, broth micro-dilution with resazurin; assay type: cell-based, Staphylococcus aureus (KCCM 11335); conditions: TS broth, 35 °C, tested up to 4000 μg/mL
# Protocol: as §2, §3
# (§4) MIC values were determined by the broth micro-dilution method with some modifications. Briefly, the culture broth of each microorganism was diluted with the same medium. […] The MIC value for a microorganism was determined as the lowest concentration of the tested compound that prevented the color change of resazurin (blue to pink).
# Cutibacterium acnes = assay: MIC, broth micro-dilution with resazurin; assay type: cell-based, Cutibacterium acnes (KCTC 25526); conditions: RCM medium, anaerobic, 35 °C, tested up to 4000 μg/mL
# Protocol: as §2, §3, §4
# Malassezia furfur = assay: MIC, broth micro-dilution with resazurin; assay type: cell-based, Malassezia furfur (KCTC 7545); conditions: supplemented RPMI, 35 °C, tested up to 4000 μg/mL
# Protocol: as §2, §3, §4
# [6] = RPMI-1640, 35 °C, tested up to 4000 μg/mL
SMILES,"DPPH radical scavenging activity ([1]; at a concentration of 50 μM, positive control)","β-carotene bleaching inhibitory activity ([2]; at a concentration of 25 μM, positive control)",logP at 20 h [3],IC50 [1],IC50 [2],concentration showing cytotoxic effects / cell death (HaCaT cells),NO levels (in words) [4],effect on TNF-α production (in words) (TNF-α in HaCaT cells),effect on IL-6 production (in words) (IL-6 in HaCaT cells),MIC (Candida albicans),water solubility (in words) [5],cytotoxicity (in words) (HaCaT cells),MIC (Candida albicans; [6]),NO production (in words) [4],MIC (Staphylococcus aureus),MIC (Cutibacterium acnes),Log Po/w (n-octanol–water partition coefficient) [3],MIC (Malassezia furfur)
"O=C1O[C@H]([C@@H](O)CO)C(O)=C1O [Ascorbic acid, reference compound]",48.74%,–,–,–,–,–,–,–,–,–,–,–,–,–,–,–,–,–
"Cc1cc(C(C)(C)C)c(O)c(C(C)(C)C)c1 [BHT, butylated hydroxytoluene, reference compound]",–,47.08%,–,–,–,–,–,–,–,–,–,–,–,–,–,–,–,–
"COc1ccc(C2CC(=O)c3c(O)cc(O[C@@H]4O[C@H](CO[C@@H]5O[C@@H](C)[C@H](O)[C@@H](O)[C@H]5O)[C@@H](O)[C@H](O)[C@H]4O)cc3O2)cc1O (stereo partly shown) [HD, hesperetin 7-rutinoside]",–,–,2.13 ± 0.03,1409 ± 3.43 µM,260.8 ± 2.55 µM,100~200 μM,reduced NO levels at higher concentrations,Drastic effects were not observed,Drastic effects were not observed,2000 µg/mL,poorly soluble in water,–,–,–,–,–,–,–
"COc1ccc(C2CC(=O)c3c(O)cc(O[C@@H]4O[C@H](CO[C@@H]5O[C@@H](C)[C@H](O)[C@@H](O)[C@H]5O)[C@@H](O[C@H]5O[C@H](CO)[C@@H](O)[C@H](O)[C@H]5O)[C@H](O)[C@H]4O)cc3O2)cc1O (stereo partly shown) [HDG, hesperidin glucoside]",–,–,-3.45,1408 ± 3.73 µM,267 ± 2.69 µM,> 200 µM,reduced NO levels at higher concentrations,Drastic effects were not observed,Drastic effects were not observed,–,highly soluble in water,much less cytotoxicity than the other compounds,2000 µg/mL,–,–,–,–,–
"COc1ccc([C@@H]2CC(=O)c3c(O)cc(O)cc3O2)cc1O [HT, hesperetin]",–,–,2.59,893.1 ± 1.67 µM,110 ± 3.74 µM,100~200 μM,–,–,–,–,hardly soluble in water,–,500 µg/mL,markedly decreased,2000 µg/mL,1000 µg/mL,–,–
"CCCCCCCCCCCC(=O)Oc1cc(O)c2c(c1)OC(c1ccc(OC)c(O)c1)CC2=O (stereo not shown) [HTL, hesperetin laurate]",–,–,7.28 ± 0.06,899.1 ± 2.52 µM,105 ± 2.01 µM,–,–,highest reducing effect,highest reducing effect,–,extremely insoluble in water,induced cell death at relatively low concentrations,250 µg/mL,markedly decreased,2000 µg/mL,1000 µg/mL,7.08 ± 0.06,1000 µg/mL
